From patent publication US20240180898A1, “USE OF AMINOTHIAZOLE DERIVATIVE IN TREATMENT OF IMMUNE INFLAMMATION” (INNAMUNE PHARMACEUTICAL CO. LTD., priority 2021, published 2024)

Test system: macrophages derived from mouse bone marrow
Experiment: LPS-induced secretion of inflammatory factors from macrophages, ELISA of supernatant
Assay type: cell-based
Settings: 30 umol/L 2 hours before LPS 500 ng/ml for 24 hours; FIG. 2
Protocol: macrophage grouping (in vitro):
Cultivate macrophages derived from mouse bone marrow in vitro.
The experiment was divided into 8 groups, namely: • Control group (untreated mouse bone marrow-derived macrophages), • LPS group (500 ng/ml LPS stimulated macrophages for 24 hours), • LPS+TJ-2 group (2 hours before LPS stimulation, administer 30 umol/L TJ-2 drug stimulation), • LPS+TJ-5 group (2 hours before LPS stimulation, administer 30 umol/L TJ-5 drug stimulation), • LPS+TJ-8 group (2 hours before LPS stimulation, administer 30 umol/L TJ-8 drug stimulation), • LPS+TJ-9 group (2 hours before LPS stimulation, administer 30 umol/L TJ-9 drug stimulation), • LPS+TJ-11 group (2 hours before LPS stimulation, administer 30 umol/L TJ-11 drug stimulation), • and LPS+TJ-12 group (2 hours before LPS stimulation, administer 30 umol/L TJ-12 drug stimulation).
After 24 hours of LPS stimulation, the cell culture supernatant was removed and ELISA was performed to detect the concentration of various inflammatory factors in the supernatant.

Row | SMILES | inhibitory effect on inflammatory factors compared among the compounds | secretion of various inflammatory factors in macrophages (IL-1β, Il-6, TNF-α, IL-18, IL-17)
1 | Cc1ccc(N2CCN(CC(=O)Nc3nc(-c4ccccc4)cs3)CC2)cc1 [INNA1602, 2-(4-(4-methylphenyl)piperazine-1-yl) -N-(4-phenylthiazole-2-yl) acetamide] | have the same inhibitory effect on inflammatory factors | can inhibit the secretion of various inflammatory factors in macrophages
2 | O=C(CN1CCN(Cc2ccccc2)CC1)Nc1nc(-c2ccccc2)cs1 [INNA1608, 2-(4-benzylpiperazine-1-yl)-N-(4-phenylthiazole-2-yl) acetamide] | have the same inhibitory effect on inflammatory factors | can inhibit the secretion of various inflammatory factors in macrophages
3 | COc1cccc(-c2csc(NC(=O)CCN3CCN(Cc4ccccc4)CC3)n2)c1 [INNA1609, 3-(4-benzylpiperazine-1-yl)-N-(4-(3-methoxyphenyl)thiazole-2-yl) propionamide] | have the same inhibitory effect on inflammatory factors | can inhibit the secretion of various inflammatory factors in macrophages
4 | Cc1cccc(-c2csc(NC(=O)CCN3CCN(c4cccc(C)c4)CC3)n2)c1 [INNA1611] | have the same inhibitory effect on inflammatory factors | can inhibit the secretion of various inflammatory factors in macrophages
5 | Cc1cccc(-c2csc(NC(=O)CN3CCN(Cc4ccccc4)CC3)n2)c1 [INNA1612, 2-(4-benzyl-base)piperazine-1-N-(4-(3-methylphenyl)thiazole-2-base) acetamide] | have the same inhibitory effect on inflammatory factors | can inhibit the secretion of various inflammatory factors in macrophages
